Source: ChEMBL document CHEMBL3108714, “Bisphenol A binds to Ras proteins and competes with guanine nucleotide exchange: implications for GTPase-selective antagonists” (J Med Chem, 2013)
Activity calls are given as the source filed them. The rule behind the calls is not given here.

Experiments:
GTP-binding protein Rheb [1] = target: T1, GTP-binding protein Rheb (Homo sapiens, UniProt Q15382); test: Inhibition of RHEB in human HeLa cells assessed as decrease in phospho-S6 protein level at 100 uM after 4 hrs by Western blotting analysis; format: cell-based
T1 sequence (Q15382 whole entry): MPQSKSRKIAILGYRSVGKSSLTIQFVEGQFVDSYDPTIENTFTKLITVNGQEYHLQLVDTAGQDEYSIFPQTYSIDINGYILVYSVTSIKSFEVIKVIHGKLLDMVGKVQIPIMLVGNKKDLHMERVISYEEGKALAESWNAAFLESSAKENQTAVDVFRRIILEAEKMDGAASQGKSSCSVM

HeLa [2] = test: Induction of apoptosis in human HeLa cells assessed as increase in cellular degeneration at 25 to 250 uM after 4 hrs by MTT assay; format: functional, cell-based
GTPase KRas = GTPase KRas (Homo sapiens, UniProt P01116); test: Binding affinity to human K-RAS by NMR analysis
GTP-binding protein Rheb [3] = target: T1, GTP-binding protein Rheb; test: Binding affinity to full-length Rheb (unknown origin) by NMR spectroscopic analysis
HeLa [4] = test: Induction of apoptosis in human HeLa cells assessed as increase in cellular degeneration at >100 uM after 24 hrs by DAPI-staining-based microscopic analysis; format: functional, cell-based

| SMILES | inhibition (GTP-binding protein Rheb [1]) | Activity (HeLa [2]) | inhibition (GTPase KRas) | Kd (GTP-binding protein Rheb [3]) [µM] | Activity (HeLa [4]) | Kd (GTPase KRas) [µM] |
| --- | --- | --- | --- | --- | --- | --- |
| Oc1ccc(-c2ccc(O)cc2)cc1 | Active | Active | inactive | 1500 | – | – |
| CC(C)(c1ccc(O)cc1)c1ccc(O)cc1 [BISPHENOL A] | inactive | – | – | 1800 | Active | 600 |
